Laboratory results reported in patent publication US10813972B2, “Treatment of DNA damage and mitochondrial dysfunction using palm fruit juice” (BRANDEIS UNIVERSITY, priority 2013, dated 2020).

System: mitochondrial DNA (HV2, CO2, ND1) of HepG2 cells
Experiment: mtDNA mutational load in HepG2 cells grown 30 days with INH or INH+PFJ (multiplex LATE-PCR/Lights On-Lights Off assay)
Assay type: cell-based, human
Settings: 88 μM INH, HepG2, 30 days
Experimental: A liver carcinoma cell line (HepG2 cells, ATCC, Manassas, Va.) was grown for 30 days in the presence of either 88 μM INH (Sigma, St. Louis, Mo.) or 88 μM INH+50 μg/ml gallic acid equivalents (GAE) PFJ. A culture without these additives served as a non-treated control. Cells were grown in Eagle's Minimum Essential Medium (ATCC Manassas, Va.). The media were supplemented with 25 mM HEPES, 10% fetal bovine serum (BioWest), 50 units/mL Penicillin G, 50 units/mL Streptomycin, and 0.25 μg Amphotericin B (HyClone Antibiotic/Antimycotic Solution 100×) in 6-well plates at 37° C. and 5% CO2. The media and additives were replenished every other day. The cells were passaged as per ATCC's instructions at an initial density of 1×10^5 cells/ml.
At the end of the culture period, each HepG2 culture was tripsinized, spun at 100×g for 15 min at 4° C. and resuspended in Dulbecco's phosphate buffer solution (Sigma, St. Louis, Mo.) at a concentration of 1×10^3 cells/ml. DNA from these cultures was extracted by placing 5 μl of cell suspension into 32.5 μl volume of a lysis buffer containing 100 μg/ml proteinase K, 10 mM Tris-Cl pH 8.3, and 5 μM SDS (sodium-dodecyl-sulfate) and heating to 50° C. for 2 hours followed by 95° C. for 15 minutes. The samples were then stored at −20° C. […]

## NNC(=O)c1ccncc1 [INH, isoniazid]
  mtDNA mutational load (fluorescent signature changes indicative of mitochondrial DNA mutations): increases mtDNA mutational load
